Measured values from US4207318A, “Novel imidazobenzoxazines” (Roussel Uclaf, priority 1977, dated 1980).
Like-named read-outs stand apart in the source and are kept apart here.

System: Passive cutaneous anaphylaxis
Assay: Passive cutaneous anaphylaxis (PCA) in rats
Assay type: in vivo
Settings: Rattus norvegicus, read-out: ED50 (dose of drug giving 50% inhibition), dosed immediately prior to challenge, male rats, ovalbumen antigen
Experimental: Passive cutaneous anaphylaxis (PCA) in rats
The following compounds were tested for their physiological activity in the test: methyl 8-chloro-4H-imidazo-[2,1-c][1,4]-benzoxazine-2-carboxylate (compound A), methyl 8-methyl-4H-imidazo-[2,1-c][1,4]-benzoxazine-2-carboxylate (compound B), 8-chloro-4H-imidazo-[2,1-c][1,4]-benzoxazine-2-carboxylic acid (compound C), 7-methyl-4H-imidazo-[2,1-c][1,4]-benzoxazine-2-carboxylic acid (compound D), 8-chloro-7-methyl-4H-imidazo-[2,1-c][1,4]-benzoxazine-2-carboxylic acid (compound E), 6-methoxy-4H-imidazo-[2,1-c][1,4]-benzoxazine-2-carboxylic acid (compound F) and 8-methyl-4H-imidazo-[2,1-c][1,4]-benzoxazine-2-carboxylic acid (compound G).
Cutaneous anaphylaxis was induced in rats by intradermal (ID) sensitization with antiserum followed three days later by systemic challenge with antigen. Evans blue dye injected with the antigen is used as a marker to assess the severity of the local response. Anti-allergic drugs inhibit this reaction. This method has been described by OVARY (1962) "Passive Cutaneous Anaphylaxis in Allergology" Page 358-367 Ed. Brown: Pergamon Press. Animals: -male rats weighing 180-220 grams are used in groups of seven.
Preparation of Antigen for Sensitization (Alum precipitated ovalbumen)
1. Wash 120 grams of Al(OH)3 gel in 140 ml of saline (use of a macerater facilitates mixing).
2. Centrifuge at 3,000 rpm for about 10 minutes.
3. Resuspend the precipitate with 300 ml of albumen egg powder (1.3 mg/ml) in saline and allow to stand for 30 minutes.
4. Centrifuge at 3,000 rpm for 10 minutes.
5. Weigh the wet precipitate and to each gram weight add 1 ml of saline. Store in refrigerator (Quantity sufficient for 60 rats for a 3 day sensitization program).
Preparation of Antiserum (anti-ovalbumen)
1 ml of the alum precipitated ovalbumen was injected subcutaneously into rats weighing 180-200 grams on days 0,2,4. The rats were bled on day 14 either by cardiac puncture or via the dorsal abdominal aorta. Equal quantities of serum from each animal were pooled and thoroughly mixed and 2 ml aliquots were stored at -20° C. in plastic tubes.
The antiserum for sensitization was diluted so that an ID injection of 0.1 ml into control animals would give an average score of a single spot of between 2.0-3.5 using 5 point scoring system.
(A) SENSITIZATION: The rats were anaesthetized Nembutal (40-60 mg/kg i.p) and were then sensitized by four ID injections (0.1 ml each) on their shaved backs. The animals were then left for a period of three days to develop sensitization.
(B) […]: The sensitized rats were dosed orally or intraveneously with the drug immediately prior to intraveneous challenge via the superficial penile vein with 1 ml of an antigen/Evans blue mixture (1 mg albumen egg powder in 0.5 ml saline plus 0.5 ml of 1% Evans blue). The injections were speeded up by using an automatic 1 ml self-filling glass syringe. The "challenged" rats were killed after 30 minutes, (usually pithed) and their skin on the dorsal surface was removed. The degree and area of blueing, proportional to the anaphylactic reaction was assessed on a five point scoring system.
1. Total scores for sites 1,2,3 and 4=X
2. Mean value of X for each group=X
X c=X for control group [formula] 5.
ED50 values for the compounds tested in the passive cutaneous anaphylaxis screen (in rats) are as follows: […]

Row | SMILES | ED50 (I.V. (intravenous)) [mg/kg] | ED50 (P.O. (oral)) [mg/kg]
1 | COc1cccc2c1OCc1nc(C(=O)O)cn1-2 [F, 6-methoxy-4H-imidazo-[2,1-c][1,4]-benzoxazine-2-carboxylic acid] | 3.27 | –
2 | Cc1ccc2c(c1)-n1cc(C(=O)O)nc1CO2 [G, 8-methyl-4H-imidazo-[2,1-c][1,4]-benzoxazine-2-carboxylic acid] | 0.35 | 0.37
3 | Cc1cc2c(cc1Cl)-n1cc(C(=O)O)nc1CO2 [E, 8-chloro-7-methyl-4H-imidazo-[2,1-c][1,4]-benzoxazine-2-carboxylic acid] | 0.75 | –
4 | COC(=O)c1cn2c(n1)COc1ccc(Cl)cc1-2 [A, methyl 8-chloro-4H-imidazo-[2,1-c][1,4]-benzoxazine-2-carboxylate] | – | 2.79
5 | O=C(O)c1cn2c(n1)COc1ccc(Cl)cc1-2 [C, 8-chloro-4H-imidazo-[2,1-c][1,4]-benzoxazine-2-carboxylic acid] | 0.42 | 0.13
6 | Cc1ccc2c(c1)OCc1nc(C(=O)O)cn1-2 [D, 7-methyl-4H-imidazo-[2,1-c][1,4]-benzoxazine-2-carboxylic acid] | 0.39 | 4
7 | COC(=O)c1cn2c(n1)COc1ccc(C)cc1-2 [B, methyl 8-methyl-4H-imidazo-[2,1-c][1,4]-benzoxazine-2-carboxylate] | – | 1.46
